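Briefly, cells in 96-well plates were exposed to five compound concentrations for 48 h, and endpoints were estimated by linear interpolation. GI50 = concentration required for 50% inhibition of growth.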 Activity calls are given as the source filed them. No stated cut-off is given here; in the data, active = GI50 up to about 1.1 µM and inactive = higher.
Assays:
Assay in all cases: NCI tumour cell line growth inhibition, 48 h
[1] = tested on: 786-0
[2] = tested on: A498
[3] = tested on: A549
[4] = tested on: ACHN
[5] = tested on: CAKI-1
[6] = tested on: CCRF-CEM
[7] = tested on: COLO 205
[8] = tested on: DU-145
[9] = tested on: EKVX
[10] = tested on: HCC 2998
[11] = tested on: HCT-116
[12] = tested on: HCT-15
[13] = tested on: HL-60
[14] = tested on: HOP-62
[15] = tested on: HOP-92
[16] = tested on: HT-29
[17] = tested on: Hs-578T
[18] = tested on: K562
[19] = tested on: KM12
[20] = tested on: LOX IMVI
[21] = tested on: M14
[22] = tested on: MDA-MB-231
[23] = tested on: MDA-MB-435
[24] = tested on: MDA-N
[25] = tested on: MOLT-4
[26] = tested on: Malme-3M
[27] = tested on: NCI-H226
[28] = tested on: NCI-H23
[29] = tested on: NCI-H460
[30] = tested on: NCI/ADR-RES
[31] = tested on: OVCAR-3
[32] = tested on: OVCAR-4
[33] = tested on: OVCAR-5
[34] = tested on: OVCAR-8
[35] = tested on: PC-3
[36] = tested on: RPMI-8226
[37] = tested on: SF-268
[38] = tested on: SF-295
[39] = tested on: SF-539
[40] = tested on: SK-MEL-28
[41] = tested on: SK-MEL-2
[42] = tested on: SK-MEL-5
[43] = tested on: SK-OV-3
[44] = tested on: SN12C
[45] = tested on: SNB-19
[46] = tested on: SNB-75
[47] = tested on: SR
[48] = tested on: SW-620
[49] = tested on: T47D
[50] = tested on: TK-10
[51] = tested on: U-251
[52] = tested on: UACC-257
[53] = tested on: UACC-62
[54] = tested on: UO-31
[55] = tested on: IGROV-1
[56] = tested on: NCI-H522
[57] = tested on: RXF 393
[58] = tested on: MCF7

Measured: GI50

CCOc1cc(/C=N\N(C)C)cc(/C=N\N(C)C)c1O
inactive: [1] 42.7 µM | [2] 55.5 µM | [3] > 100 µM | [4] 21.5 µM | [5] 18.3 µM | [6] 44.7 µM | [7] 18.7 µM | [8] > 100 µM | [9] 71.6 µM | [10] 91.2 µM | [11] 90.6 µM | [13] 52.5 µM | [14] 50.8 µM | [15] 7.66 µM | [16] 42.3 µM | [17] 29.7 µM | [18] > 100 µM | [19] > 100 µM | [20] 30.5 µM | [21] 40.2 µM | [22] 43.1 µM | [23] 32.5 µM | [24] 32.8 µM | [25] 61 µM | [26] 32.4 µM | [27] 38.3 µM | [28] > 100 µM | [29] 30.1 µM | [30] 35.8 µM | [31] 31.7 µM | [32] > 100 µM | [33] 48.2 µM | [34] 21.6 µM | [35] 33.2 µM | [36] 31.6 µM | [37] 19.8 µM | [38] 41.3 µM | [39] 20.6 µM | [40] 35.4 µM | [41] 28.2 µM | [42] 22.1 µM | [43] 29.4 µM | [44] 54 µM | [45] 48.9 µM | [46] 28.8 µM | [47] 38 µM | [48] 53.3 µM | [49] 11.7 µM | [50] 69.2 µM | [51] 33.7 µM | [52] 36 µM | [53] 69 µM | [54] 29.4 µM
35.2 µM: [12]

CCOC(=O)c1ccc(/N=c2/[nH]c3ccccc3s/c2=N/c2ccc(C(=O)OCC)cc2)cc1
inactive: [1] 25.4 µM | [2] 82 µM | [3] 95.7 µM | [4] 29.1 µM | [5] > 100 µM | [6] > 100 µM | [7] > 100 µM | [8] > 100 µM | [9] > 100 µM | [10] > 100 µM | [11] 53.1 µM | [13] > 100 µM | [14] > 100 µM | [15] > 100 µM | [16] 70.3 µM | [17] 39.5 µM | [55] > 100 µM | [18] > 100 µM | [19] > 100 µM | [20] > 100 µM | [22] > 100 µM | [23] > 100 µM | [24] > 100 µM | [25] > 100 µM | [26] > 100 µM | [27] > 100 µM | [28] > 100 µM | [29] 40.6 µM | [56] 5.24 µM | [30] 88.9 µM | [32] 33.6 µM | [33] > 100 µM | [34] 86.7 µM | [35] > 100 µM | [36] > 100 µM | [57] > 100 µM | [37] > 100 µM | [38] 83 µM | [39] 72.8 µM | [40] > 100 µM | [41] > 100 µM | [42] > 100 µM | [43] > 100 µM | [44] > 100 µM | [45] > 100 µM | [46] 48 µM | [47] > 100 µM | [48] > 100 µM | [49] > 100 µM | [50] > 100 µM | [51] 39.4 µM | [52] > 100 µM | [53] > 100 µM | [54] > 100 µM
> 100 µM: [12]

NS(=O)(=O)c1ccc(/C=C/c2ccc(O)c(O)c2)cc1
inactive: [1] 34.7 µM | [2] 54.3 µM | [7] 21.2 µM | [8] 68.7 µM | [9] 21.2 µM | [10] 18.7 µM | [11] 25.5 µM | [14] 47.2 µM | [21] 26.5 µM | [58] 20.8 µM | [22] 19.6 µM | [24] 18.3 µM | [26] 35.3 µM | [29] 27.3 µM | [30] 23.1 µM | [31] 31.6 µM | [33] 31.6 µM | [35] 19.1 µM | [57] 69.3 µM | [38] 29.8 µM | [40] 23.2 µM | [41] 22.5 µM | [42] 10.8 µM | [43] 17.3 µM | [44] 18.7 µM | [45] 34.4 µM | [46] 20.4 µM | [48] 22 µM | [49] 14.5 µM | [50] 60.7 µM | [52] 61.5 µM | [54] 12.3 µM

C1=C(N2CCOCC2)/C(=C2\SC(=N/c3ccccc3)/C(=N\c3ccccc3)N2c2ccccc2)CC1
> 100 µM: [12]
inactive: [2] 94.4 µM | [5] 51.8 µM | [6] 19.7 µM | [7] > 100 µM | [8] > 100 µM | [11] > 100 µM | [13] > 10 µM | [14] 28.9 µM | [15] 34.8 µM | [16] > 100 µM | [17] 26.8 µM | [55] > 100 µM | [18] > 100 µM | [19] > 100 µM | [21] 38.2 µM | [22] 61.5 µM | [23] > 100 µM | [24] > 100 µM | [25] 20.9 µM | [26] > 100 µM | [28] > 100 µM | [29] > 100 µM | [56] 29 µM | [30] > 100 µM | [31] 52.4 µM | [34] 62.5 µM | [35] > 100 µM | [36] > 100 µM | [38] 49.2 µM | [40] 75.2 µM | [41] 89.3 µM | [42] > 100 µM | [43] 34.1 µM | [44] > 100 µM | [46] 23.1 µM | [47] 67.5 µM | [49] > 100 µM | [51] 68.4 µM | [53] 18.7 µM

[O-][S+](c1ccccc1)C1CC2CC3(CCC21O)OCCO3 (stereo unspecified)
> 100 µM: [12]
inactive: [1] > 100 µM | [2] > 100 µM | [3] > 100 µM | [4] > 100 µM | [5] > 100 µM | [6] > 100 µM | [7] > 100 µM | [8] > 100 µM | [9] > 100 µM | [10] > 100 µM | [13] > 100 µM | [14] > 100 µM | [15] > 100 µM | [16] > 100 µM | [17] > 100 µM | [55] > 100 µM | [18] > 100 µM | [19] > 100 µM | [20] > 100 µM | [21] > 100 µM | [58] > 100 µM | [22] > 100 µM | [23] > 100 µM | [24] > 100 µM | [25] > 100 µM | [26] > 100 µM | [27] > 100 µM | [28] > 100 µM | [29] > 100 µM | [56] > 100 µM | [30] > 100 µM | [31] > 100 µM | [32] > 100 µM | [33] > 100 µM | [34] > 100 µM | [35] > 100 µM | [36] > 100 µM | [57] > 100 µM | [37] > 100 µM | [38] > 100 µM | [40] > 100 µM | [41] > 100 µM | [42] > 100 µM | [43] > 100 µM | [45] > 100 µM | [46] > 100 µM | [47] > 100 µM | [48] > 100 µM | [49] > 100 µM | [50] > 100 µM | [51] > 100 µM | [52] > 100 µM | [53] > 100 µM | [54] > 100 µM

Reference: ChEMBL document CHEMBL1201862, “PubChem BioAssay data set” (2004)
